Data as given in patent US5565488A, “Oxalylamino-benzofuran- and benzothienyl-derivatives” (Bayer Aktiengesellschaft, priority 1994, dated 1996).

What was measured:
FMLP-induced skin oedema = assay: Effect of intravenously administered compounds on the FMLP-induced skin oedema guinea pigs; assay type: in vivo; conditions: i.v., 1 mg/kg, guinea pig
Description: 5. Effect of intravenously administered compounds on the FMLP-induced skin oedema guinea pigs
Guinea pigs (600-800 g) were anaesthetized with pentobarbitone sodium (40 mg/kg, i.p.) and injected (i.v.) with a 0.5 ml mixture of pentamine sky blue (5% W/V) and ^125 I-HSA (1 μli/animal). 10 minutes later 3 intradermal injections of FMLP (10 μg/site), 1 injection of histamine (1 μg/site) and 1 injection of vehicle (100 μl of 0.2% DMSO V/V in Hanks Buffered salt solution) were made on the left hand side of the animal (preinjection sites). 5 minutes later the drug (1 ml/kg) or the vehicle (50% PEG 400 V/V in distilled water, […]) was administered (i.v.). 10 minutes later an identical pattern of interadermal injections was made on the opposite flank of the animal (post-injection sites). These responses were allowed-to develop for 15 minutes before the animal was sacrificed and a blood sample taken.
Skin sites and plasma samples were counted for 1 minute on a gamma counter an the degree of oedema calculated as μl plasma/skin site. Statistical analysis was done by a paired t-test on the mean of the 3 preinjection site values of μl plasma obtained for FMLP/animal. The percentage inhibition of drug or vehicle was calculated as follow

human PMN = assay: Inhibition of FMLP-stimulated production of superoxide radical anions; assay type: cell-based; conditions: Neutrophil, human neutrophils; for IC50: 4×10^-8 M FMLP
Description: 1. Preparation of human PMN
Blood was taken from healthy subjects by venous puncture and neutrophils were purified by dextran sedimentation and resuspended in the buffered medium.
2. Inhibition of FMLP-stimulated production of superoxide radical anions.
Neutrophils (2.5×10^5 ml^-1) were mixed with cytochrome C (1.2 mg/ml) in the wells of a microtitre plate. Compounds according to the invention were added in dimethyl sulphoxide (DMSO). Compound concentration ranged from 2.5 nM to 10 μM, the DMSO concentration was 0.1% v/v in all wells. After addition of cytochalasin b (5 μg×ml^-1) the plate was incubated for 5 min at 37° C. Neutrophils were then stimulated by addition of 4×10^-8 M FMLP and superoxide generation measured as superoxide dismutase inhibitable reduction of cytochrome C by monitoring the OD550 in a Thermomax microtitre plate spectrophotometer. Initial rates were calculated using a Softmax kinetic calculation programme. Blank wells contained 200 units of superoxide dismutase.
The inhibition of superoxide production was calculated as follows: [formula] Rx=Rate of the well containing the compound according to the invention. Ro=Rate in the control well.
Rb=Rate in the superoxide dismutase containing blank well.

| Structure (SMILES) | % inhibition (FMLP-induced skin oedema) [%] | inhibition at 10 µM (human PMN) [%] | IC50 (human PMN) [nM] |
| --- | --- | --- | --- |
| CCOC(=O)C(=O)Nc1ccc2c(CCC(=O)OC)c(C(=O)c3ccc(C)cc3)oc2c1 [Example 2] | 47 | – | – |
| CCOC(=O)C(=O)Nc1ccc2c(CCC(=O)OC)c(C(=O)c3ccc(Cl)cc3)oc2c1 [Example 7] | – | 86 | 900 |
| COC(=O)CCc1c(C(=O)c2ccc(Cl)cc2)oc2cc(NC(=O)C(=O)OC)ccc12 [Example 1, 3-[2-(4-Chlorobenzoyl)-6-(2-methoxy-2-oxo-acetamido)-3-benzofuranyl]propanoic acid, methylester] | – | 62 | 170 |
| CCOC(=O)C(=O)Nc1ccc2c(C)c(C(=O)c3ccc(C)cc3)oc2c1 [Example 6] | – | 67 | 110 |
| CCOC(=O)C(=O)Nc1ccc2c(CCC(=O)OC)c(C(=O)c3ccncc3)oc2c1 [Example 344] | – | 81 | 200 |
